Assay results taken from article PMC11249239 (PLOS ONE, 2024).
“And” between values parts separate entries of the source, which are not always exact repeats. Identical values can stand only once. Like-named read-outs stand apart in the source and are kept apart here.

Experiments:
[1] = test system: MCF10A normal breast epithelial cells; experiment: Cell growth inhibition (CCK8 cytotoxicity assay), MCF10A; assay type: cell-based; conditions: 48 h treatment, read-out: Average EC50 ± SD, cell growth inhibition
HDAC3 = target: T1, HDAC3 (Homo sapiens, UniProt O15379); experiment: In vitro HDAC isoform inhibition, purified recombinant HDAC3; assay type: biochemical; conditions: purified recombinant protein; ± margin of error of 95% confidence interval; read-out: IC50 HDAC inhibition activity in vitro, HDAC 3
T1 construct: purchased PBS Bioscience [sic] (San Diego, CA); host or cells: Sf9 insect cells / baculovirus
Source text: (§1) In vitro HDAC enzyme inhibition assays utilized HeLa cell extract for pan-HDACs with the substrate Fluor-Lys following the manufacturer’s protocol (BIOMOL/ENZO, Plymouth Meeting, PA). For isoform assays, purified HDAC1, HDAC3, and HDAC6 recombinant proteins produced by expressing epitope-tagged full-length proteins in the sf9 baculovirus expression vector system were purchased from PBS Bioscience (San Diego, CA). […] The reaction commenced with the addition of HDAC substrate at room temperature and proceeded for 30 minutes. Termination of the reaction was achieved by adding 50 μL of Fluor de Lys (TM) Assay Developer. The fluorophore was excited at 360 nm and emitted light at 460 nm. Relative fluorescence was measured using a FlexStation II plate reader (Molecular Devices, Sunnyvale, CA).

[2] = test system: acetylated histone 3 lysine 9 (H3K9ac); experiment: Western blot, acetylation of histone H3 lysine 9; assay type: cell-based; conditions: MCF7 and MDA-MB-231; 1 μM; within 0.5 h
Source text: (§2) Following treatment of cells with SP-1-303 over a time course, total or nuclear proteins were extracted and analyzed on 4–20% trisglycine gradient sodium dodecyl sulfate polyacrylamide gel electrophoresis (SDS-PAGE). Subsequently, membranes were probed with antibodies targeting specific proteins in accordance with the manufacturers’ protocols, including ATM (ab78), p-BRCA1 (ab90528), BRCA1 (ab191042), p-p53/S15 (ab1431), acetylated H3K9 (ab12179) from Abcam, as well as p-ATM (# 5883) and p53 (#9282) from Cell Signaling, α-tubulin (T6793) and β-actin (A3854) from Sigma-Aldrich, ER-α (cat# MA1-80216, Invitrogen) and HDAC2 (BML-SA402. Enzo). Protein images were captured using ECL Prime Western Blotting Detection Reagents (Cat#. RPN2232, Amersham) and the Amersham Imager 600. For immunofluorescent analysis, formalin fixed cells were permeabilized with 0.1% Triton X-100 in TBS for 10 minutes at room temperature, followed by blocking with 1% Blocker BSA for 15 minutes at room temperature. Cells were then probed with a phospho-ATM monoclonal antibody (MA5-15185) and DyLight 488 goat anti-mouse IgG secondary antibody at room temperature. Actin was stained with DyLight 554 phalloidin, while nuclei were stained with 4’,6-diamidino-2-phenylindole dye (DAPI). Images were captured using a Nikon Epi Fluorescent microscopy.

MCF7 (ER+) cells = experiment: Cell growth inhibition (CCK8 cytotoxicity assay), MCF7; assay type: cell-based; conditions: Homo sapiens, 48 h treatment, read-out: Average EC50 ± SD, cell growth inhibition
p53 = experiment: Western blot of nuclear extracts, p53 expression; assay type: cell-based; conditions: 1 μM, time course
Source text: as §2

HDAC1 = target: T2, HDAC1 (Homo sapiens, UniProt Q13547); experiment: In vitro HDAC isoform inhibition, purified recombinant HDAC1; assay type: biochemical; conditions: purified recombinant protein; ± margin of error of 95% confidence interval; read-out: IC50 HDAC inhibition activity in vitro, HDAC 1
T2 construct: purchased PBS Bioscience [sic] (San Diego, CA); host or cells: Sf9 insect cells / baculovirus
Source text: as §1

MCF10A cells = experiment: Radiation clonogenic survival assay, MCF10A; assay type: cell-based; conditions: 0.3 μM for 24 h then graded γ-radiation, control 2.5 Gy
Description: Logarithmically growing cells were treated with vehicle (0.1% Dimethyl Sulfoxide) or SP-1-303 (0.3 μM) for 24 h followed by sham or γ-radiation using a Mark-30 irradiator with a 137Cs source at a fixed dose rate of 2.71 Gy/min. Cells were exposed to graded doses at room temperature. After 10–14 days, cells were fixed and stained with crystal violet, and colonies were counted. The surviving fractions of treated cells were normalized using the plating efficiencies of untreated controls. Radiation survival curves were generated by fitting to the single-hit, multitarget model.

MDA-MB-231 (TNB) cells = experiment: Cell growth inhibition (CCK8 cytotoxicity assay), MDA-MB-231; assay type: cell-based; conditions: 48 h treatment, read-out: Average EC50 ± SD, cell growth inhibition
acetylated α-tubulin = experiment: Western blot, acetylation of α-tubulin; assay type: cell-based; conditions: MCF7 and MDA-MB-231; 1 μM; time dependent
Source text: as §2

HCC-1937 (TNB) cells = experiment: Cell growth inhibition (CCK8 cytotoxicity assay), HCC-1937; assay type: cell-based; conditions: 48 h treatment, read-out: Average EC50 ± SD, cell growth inhibition
[3] = test system: pan-HDACs (HeLa cell extract); experiment: In vitro HDAC enzyme inhibition, HeLa cell nuclear extract (Fluor de Lys); assay type: biochemical; conditions: ± margin of error of 95% confidence interval
Source text: as §1

T47D (ER+) cells = experiment: Cell growth inhibition (CCK8 cytotoxicity assay), T47D; assay type: cell-based; conditions: 48 h treatment, read-out: Average EC50 ± SD, cell growth inhibition
[4] = test system: triple negative breast cancer cells; experiment: Cell growth inhibition, triple negative breast cancer cells stated together; assay type: cell-based; conditions: range over triple negative breast cancer cells; read-out: effective growth inhibition concentrations (EC50)
Source text: Prism-GraphPad software was used to analyze data.

MCF7 cells = experiment: Cell cycle analysis by flow cytometry (FACS); assay type: cell-based
Description: Cells were treated with SP-1-303 for 24, 48, and 72 hours. DMSO and ionizing radiation (IR) were used on controls. The cell cycle distributions were analyzed by flow cytometry. The cells were harvested at the indicated times, washed twice with cold phosphate-buffered saline (PBS), and fixed with citrate/DMSO buffer for overnight. The cells were resuspended in PBS containing 40 μg/ml of DNase-free RNase A and 50 μg/ml of propidium iodide, and the cell cycle distributions were measured in a fluorescence-activated cell sorter (FACSort) from Becton Dickinson. DNA content was quantified using ModFit LT 3.0 software (Verity Software House, Inc).

phosphorylated BRCA1 = experiment: Western blot, phosphorylated BRCA1; assay type: cell-based; conditions: 1 μM
Source text: as §2

HDAC4 = HDAC4 (Homo sapiens, UniProt P56524); experiment: HDAC4 activity inhibition (data not shown); assay type: biochemical; conditions: read-out: IC50 class IIa HDAC4 inhibition
HDAC8 = HDAC8 (Homo sapiens, UniProt Q9BY41); experiment: HDAC8 activity inhibition (data not shown); assay type: biochemical
HDAC8, sequence (Q9BY41 whole entry, species assumed): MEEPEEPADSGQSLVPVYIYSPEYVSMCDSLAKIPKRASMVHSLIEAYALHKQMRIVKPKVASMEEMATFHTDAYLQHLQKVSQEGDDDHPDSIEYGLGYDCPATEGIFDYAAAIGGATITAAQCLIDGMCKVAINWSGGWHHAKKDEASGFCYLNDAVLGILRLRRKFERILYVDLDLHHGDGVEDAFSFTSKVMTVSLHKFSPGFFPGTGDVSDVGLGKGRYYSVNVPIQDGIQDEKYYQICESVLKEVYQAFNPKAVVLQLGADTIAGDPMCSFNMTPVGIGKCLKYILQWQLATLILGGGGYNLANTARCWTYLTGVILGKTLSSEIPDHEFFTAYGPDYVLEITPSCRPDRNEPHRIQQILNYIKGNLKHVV

HDAC4, sequence (P56524 whole entry, species assumed): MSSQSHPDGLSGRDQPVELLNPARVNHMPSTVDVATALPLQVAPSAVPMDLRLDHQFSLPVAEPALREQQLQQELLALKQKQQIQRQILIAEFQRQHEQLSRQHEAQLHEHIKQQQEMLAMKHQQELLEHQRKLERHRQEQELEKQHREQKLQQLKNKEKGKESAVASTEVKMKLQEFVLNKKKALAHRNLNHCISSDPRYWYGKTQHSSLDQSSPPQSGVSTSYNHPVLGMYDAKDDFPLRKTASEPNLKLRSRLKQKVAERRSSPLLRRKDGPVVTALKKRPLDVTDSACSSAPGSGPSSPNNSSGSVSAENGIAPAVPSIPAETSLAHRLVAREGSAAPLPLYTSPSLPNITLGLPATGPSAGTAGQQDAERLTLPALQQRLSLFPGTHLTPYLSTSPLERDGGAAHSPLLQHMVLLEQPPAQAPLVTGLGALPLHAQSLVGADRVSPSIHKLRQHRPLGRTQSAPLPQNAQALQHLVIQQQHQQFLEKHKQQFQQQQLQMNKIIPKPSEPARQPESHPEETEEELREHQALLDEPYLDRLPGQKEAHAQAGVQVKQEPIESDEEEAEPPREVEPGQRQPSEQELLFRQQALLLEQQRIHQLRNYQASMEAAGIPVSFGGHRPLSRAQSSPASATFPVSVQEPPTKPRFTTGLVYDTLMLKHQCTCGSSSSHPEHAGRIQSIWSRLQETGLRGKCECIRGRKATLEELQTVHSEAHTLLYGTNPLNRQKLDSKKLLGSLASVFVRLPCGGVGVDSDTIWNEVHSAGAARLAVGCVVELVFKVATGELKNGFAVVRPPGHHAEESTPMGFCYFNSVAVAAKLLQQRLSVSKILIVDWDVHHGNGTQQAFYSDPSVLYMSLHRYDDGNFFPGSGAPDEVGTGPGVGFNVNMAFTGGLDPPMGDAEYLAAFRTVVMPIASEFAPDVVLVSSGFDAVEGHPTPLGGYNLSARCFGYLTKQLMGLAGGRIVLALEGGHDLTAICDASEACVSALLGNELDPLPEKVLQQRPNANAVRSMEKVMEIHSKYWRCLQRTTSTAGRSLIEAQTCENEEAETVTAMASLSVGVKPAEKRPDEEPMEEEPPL
T1 sequence (O15379 whole entry, canonical isoform): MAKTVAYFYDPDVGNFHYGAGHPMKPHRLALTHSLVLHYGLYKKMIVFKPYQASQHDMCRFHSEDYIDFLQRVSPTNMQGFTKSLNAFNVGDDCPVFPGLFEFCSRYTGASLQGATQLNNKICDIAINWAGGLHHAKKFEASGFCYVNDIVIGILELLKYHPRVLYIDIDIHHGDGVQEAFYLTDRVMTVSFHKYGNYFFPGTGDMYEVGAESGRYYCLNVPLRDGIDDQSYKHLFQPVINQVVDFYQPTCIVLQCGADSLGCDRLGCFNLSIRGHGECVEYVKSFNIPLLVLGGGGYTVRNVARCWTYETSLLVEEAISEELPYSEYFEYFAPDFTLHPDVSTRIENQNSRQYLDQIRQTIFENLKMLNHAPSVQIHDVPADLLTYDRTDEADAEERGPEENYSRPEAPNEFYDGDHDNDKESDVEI
T1 sequence (Q9Y618 395-489 partner limits assumed): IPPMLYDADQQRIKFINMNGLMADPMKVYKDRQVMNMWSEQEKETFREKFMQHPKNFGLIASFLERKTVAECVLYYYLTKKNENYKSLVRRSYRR
T2 sequence (Q13547 whole entry, canonical isoform): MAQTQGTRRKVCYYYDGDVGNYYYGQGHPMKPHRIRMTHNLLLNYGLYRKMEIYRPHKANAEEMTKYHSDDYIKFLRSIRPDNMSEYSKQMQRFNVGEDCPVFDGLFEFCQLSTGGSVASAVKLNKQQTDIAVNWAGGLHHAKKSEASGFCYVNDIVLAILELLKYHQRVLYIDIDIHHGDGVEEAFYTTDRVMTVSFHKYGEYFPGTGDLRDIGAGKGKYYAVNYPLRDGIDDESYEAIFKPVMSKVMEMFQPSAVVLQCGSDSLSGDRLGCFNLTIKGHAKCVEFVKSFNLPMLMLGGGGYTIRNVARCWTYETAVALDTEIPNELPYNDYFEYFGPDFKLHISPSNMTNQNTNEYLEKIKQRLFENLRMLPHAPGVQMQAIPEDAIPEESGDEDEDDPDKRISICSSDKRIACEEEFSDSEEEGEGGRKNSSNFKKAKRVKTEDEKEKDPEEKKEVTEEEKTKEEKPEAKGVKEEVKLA

Cc1[nH]c2ccccc2c1C1=C(c2c(C)[nH]c3ccccc23)C(=O)N(CCCCCCC(=O)NO)C1=O [SP-1-303]
EC50 [1]: 12200 nM | EC50 ([1]; Homo sapiens, MCF-10A, 48 h): ~12000 nM | IC50 (HDAC3): 14 ± 2 nM | acetylation of histone H3 lysine 9 (H3K9) [2]: significantly enhanced | EC50 (MCF7 (ER+) cells): 340 ± 122 nM | expression of p53 (p53; MCF7): gradual increase | expression of p53 (p53; MDA-MB-231): no significant change | IC50 (HDAC1): 12 ± 1 nM | D0, radiation clonogenic survival (MCF10A cells): 2.4 Gy | EC50 (MDA-MB-231 (TNB) cells): 1220 ± 243 nM | EC50 (MDA-MB-231 (TNB) cells; Homo sapiens, MDA-MB-231, 48 h): 1200 nM | acetylation of α-tubulin (acetylated α-tubulin): gradually increased | EC50 (HCC-1937 (TNB) cells): 2480 nM | EC50 (HCC-1937 (TNB) cells; Homo sapiens, HCC1937, 48 h): 2500 nM | IC50 [3]: 120 ± 58 nM | EC50 (T47D (ER+) cells): 321 ± 27 nM | EC50 (T47D (ER+) cells; Homo sapiens, T47D, 48 h): 320 nM | EC50 [4]: 1200 to 2500 nM | % Cells in G1 (MCF7 cells; 24 HR): 89.44% | % Cells in G2/M (MCF7 cells; 24 HR): 6.19% | % Cells in S (MCF7 cells; 24 HR): 4.37% | % Cells in G2/M (MCF7 cells; 24 HR + IR): 5.12% | % Cells in S (MCF7 cells; 24 HR + IR): 3.91% | % Cells in G1 (MCF7 cells; 24 HR + IR (combination with radiation)): 91% and 90.97% | % Cells in G1 (MCF7 cells; 48 HR): 71.02% | % Cells in G2/M (MCF7 cells; 48 HR): 6.75% | % Cells in S (MCF7 cells; 48 HR): 22.24% | % Cells in G1 (MCF7 cells; 72 HR): 81.35% | % Cells in G2/M (MCF7 cells; 72 HR): 6.21% | % Cells in S (MCF7 cells; 72 HR): 12.45% | phosphorylated BRCA1 (phosphorylated BRCA1; MCF7, within 1h to 2h): induction | phosphorylated BRCA1 (phosphorylated BRCA1; MDA-MB-231): without significant alteration | IC50 (HDAC4): > 20000 nM | IC50 (HDAC8): 310 nM
